From ChEMBL document CHEMBL2390845, “Identification of PDZ ligands by docking-based virtual screening for the development of novel analgesic agents” (Bioorg Med Chem Lett, 2013)
Calls of active or inactive are those of the source.

What was measured:
[1] = biological target: Disks large homolog 4 (Homo sapiens) (UniProt P78352); test: Binding affinity to PSD-95 PDZ2 domain (unknown origin) expressed in Escherichia coli BL21 at 1 mM by 1H-15N HSQC NMR analysis
[2] = biological target: Disks large homolog 4 (Homo sapiens) (UniProt P78352); test: Binding affinity to PSD-95 PDZ1 domain (unknown origin) expressed in Escherichia coli BL21 at 1 mM by 1H-15N HSQC NMR analysis
Rattus norvegicus [3] = test: Antihyperalgesic activity in intrathecally dosed chronic constriction nerve injury-induced rat neuropathic pain model assessed as vocalisation threshold to paw-pressure measured up to 120 mins post-compound treatment; format: functional, organism-based
Rattus norvegicus [4] = test: Antihyperalgesic activity in chronic constriction nerve injury-induced rat neuropathic pain model assessed as reduction in mechanical hyperalgesia measuring vocalisation threshold to paw-pressure at 122.6 ng administered intrathecally measured 15 mins post-compound treatment; format: functional, organism-based

Sequence of Disks large homolog 4 (Homo sapiens) (P78352 whole entry, looked up, the tested form may be a part): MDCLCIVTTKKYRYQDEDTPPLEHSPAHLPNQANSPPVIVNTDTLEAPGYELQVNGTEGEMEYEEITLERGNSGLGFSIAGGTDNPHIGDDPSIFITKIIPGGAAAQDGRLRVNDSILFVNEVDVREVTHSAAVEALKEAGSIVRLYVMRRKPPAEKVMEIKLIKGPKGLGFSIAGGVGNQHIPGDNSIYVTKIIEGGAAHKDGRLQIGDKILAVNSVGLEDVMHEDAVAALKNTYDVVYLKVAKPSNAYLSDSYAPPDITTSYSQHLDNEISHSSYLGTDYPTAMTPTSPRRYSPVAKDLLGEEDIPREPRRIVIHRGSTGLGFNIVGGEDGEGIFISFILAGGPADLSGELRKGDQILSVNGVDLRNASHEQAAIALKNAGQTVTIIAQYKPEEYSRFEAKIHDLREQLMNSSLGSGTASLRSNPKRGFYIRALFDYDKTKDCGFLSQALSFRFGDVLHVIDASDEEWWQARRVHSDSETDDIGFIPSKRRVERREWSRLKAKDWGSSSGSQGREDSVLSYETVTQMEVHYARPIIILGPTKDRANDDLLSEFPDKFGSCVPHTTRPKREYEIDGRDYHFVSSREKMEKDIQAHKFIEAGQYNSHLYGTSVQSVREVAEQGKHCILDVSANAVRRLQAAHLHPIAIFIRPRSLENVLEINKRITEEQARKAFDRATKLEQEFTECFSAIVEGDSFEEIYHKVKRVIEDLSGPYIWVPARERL

| Activity [1] | Activity [2] | SMILES | Activity (Rattus norvegicus [3]) | Activity (Rattus norvegicus [4]) |
| --- | --- | --- | --- | --- |
| inactive | inactive | O=C(O)c1ccc(N[C@@H]2O[C@H](CO)[C@@H](O)[C@H](O)[C@H]2O)cc1 | – | – |
| Active | Active | Cc1cc2cc(C)c(C(=O)O)nc2cc1C(=O)O | Dose-dependent effect | Active |
| inactive | inactive | O=C(N/N=C/c1cccc(O)c1O)c1ccc(O)cc1 | – | – |
